This test deals with T1, CETP (Homo sapiens, UniProt P11597).
T1 construct: from tissue; host or cells: human plasma from healthy men
T1 sequence (P11597 18-493): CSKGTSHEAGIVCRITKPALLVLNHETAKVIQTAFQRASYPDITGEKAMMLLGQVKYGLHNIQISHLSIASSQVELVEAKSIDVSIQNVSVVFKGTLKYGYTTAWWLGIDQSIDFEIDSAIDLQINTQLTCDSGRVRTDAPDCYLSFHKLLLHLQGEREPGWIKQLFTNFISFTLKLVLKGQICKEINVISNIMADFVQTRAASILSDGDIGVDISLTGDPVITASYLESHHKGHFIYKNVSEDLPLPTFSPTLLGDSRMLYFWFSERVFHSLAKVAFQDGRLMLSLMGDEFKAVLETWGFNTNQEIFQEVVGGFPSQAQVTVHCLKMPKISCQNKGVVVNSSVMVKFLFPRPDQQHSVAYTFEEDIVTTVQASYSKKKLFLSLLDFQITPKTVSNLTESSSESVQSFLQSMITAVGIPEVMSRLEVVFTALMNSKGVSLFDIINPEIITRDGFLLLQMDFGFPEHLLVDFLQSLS
As to the kind of experiment: Inhibitory activity against CETP in human plasma (Roar CETP activity kit, fluorescence). The format is biochemical. The conditions noted are these: plasma from healthy men diluted 1:10 in assay buffer, 37° C., 3 hrs, fluorescence 465/535 nm; read-out: IC50, Inhibition of CETP Activity in Human Plasma. How it is done:
A CETP activity kit (#RB-CETP) was purchased from Roar […], Inc. A donor and an acceptor (each, 4 ul), a 10× assay buffer (177 ul), and each of dilutions of test compounds in dimethylsulfoxide (DMSO, Sigma-Aldrich) (0.01 nM˜10000 nM) were added to each well of black round-bottom 96-well plates (Corning #3792). Plasma samples from healthy men were diluted in the assay buffer (1:10=plasma:assay buffer), and added to each well. The plates were sealed with a sealing film (Sigma-Aldrich, #Z369659), and incubated in a 37° C. incubator microplate shaker (#SLST-3, Seolin Bio) for 3 hrs. After removal of the sealing film, fluorescence was read on Spectra Max Gemini EM (Molecular devices) with an excitation wavelength of 465 nm and an emission wavelength of 535 nm. Measurements were calculated according to the following formula. Calculated value=(Fluorescence Intensity with both compound and plasma−Fluorescence Intensity with compound but without plasma)/(Fluorescence Intensity with plasma but without compound−Fluorescence Intensity with neither compound nor plasma)
From the calculated value, a sigmoidal curve (y=start+(end-start)x^n/k^n+x^n) was drawn using Origin Software (OriginLab Corporation, ver. 8.0724) to obtain IC50 values.

Results on 23 compounds are retold here after patent US9533977B2, “Oxazolidinone derivative as CETP inhibitor, its preparation method, and pharmaceutical composition comprising the same” (DONG-A ST CO., LTD., priority 2013, dated 2017).

On to `CCN(c1ncc(-c2cc(C)cs2)cc1CN1C(=O)O[C@H](c2cc(C(F)(F)F)cc(C(F)(F)F)c2)[C@@H]1C)C1CCCCC1` [Example 63, (4S,5R)-5-[3,5-bis(trifluoromethyl)phenyl]-4-methyl-3-({[2-(ethyl)(cyclohexyl)amino]-5-(3-methyl-thiophen-5-yl)pyridin-3-yl}methyl)-oxazolidin-2-one], for which the IC50 – broadly, the point on the concentration scale where inhibition reaches its midpoint – was 18.9 nM.

Turning to `CCN(c1ncc(-c2c(C)noc2C)cc1CN1C(=O)O[C@H](c2cc(C(F)(F)F)cc(C(F)(F)F)c2)[C@@H]1C)C1CCOCC1` [Example 51], the IC50 is 12.7 nM.

For the compound `CCN(C[C@H]1CC[C@H](CC(=O)O)CC1)c1ncc(-c2cccs2)nc1CN1C(=O)OC(c2cc(C(F)(F)F)cc(C(F)(F)F)c2)[C@@H]1C` (some centres unmarked) [Example 114], the IC50 came out at 10.3 nM.

With `CCN(CC1CCC(CCO)CC1)c1ncc(N2CCCC2)nc1CN1C(=O)OC(c2cc(C(F)(F)F)cc(C(F)(F)F)c2)C1C` [Example 131, trans-4-({[3-({(4S,5S)-5-[3,5-bis(trifluoromethyl)phenyl]-4-methyl-2-oxazolidin-3-yl}methyl)-5-(pyrrolidin-4-yl)pyrazin-2-yl]{[N-(ethyl)aminomethyl]cyclohexyl)}propanol], the IC50 stood at 4.98 nM.

In the case of `CCN(c1ncc(N2CCC(F)(F)C2)cc1CN1C(=O)O[C@H](c2cc(C(F)(F)F)cc(C(F)(F)F)c2)[C@@H]1C)C1CCCCC1` [Example 91, (4S,5R)-5-[3,5-bis(trifluoromethyl)phenyl]-4-methyl-3-({[2-(ethyl)(cyclohexyl)amino]-5-(3,3-difluoro-pyrrolidin-1-yl)pyridin-3-yl}methyl)-oxazolidin-2-one], the IC50 came to 26.7 nM.

Turning to `C[C@H]1C(c2cc(C(F)(F)F)cc(C(F)(F)F)c2)OC(=O)N1Cc1nc(C2CCCC2)cnc1N(C)C[C@H]1CC[C@H](CC(=O)O)CC1` (some centres unmarked) [Example 129], the IC50 stood at 34 nM.

Turning to `CCN(c1ncc(N2CCC2)cc1CN1C(=O)O[C@H](c2cc(C(F)(F)F)cc(C(F)(F)F)c2)[C@@H]1C)C1CCOCC1` [Example 43, (4S,5R)-5-[3,5-bis(trifluoromethyl)phenyl]-4-methyl-3-({[2-(ethyl)(tetrahydro-2H-pyran-4-yl)amino]-5-(azetidin-1-yl)pyridin-3-yl}methyl)-oxazolidin-2-one], the IC50 was 7.9 nM.

As to `CCN(c1ncccc1CN1C(=O)O[C@H](c2cc(C(F)(F)F)cc(C(F)(F)F)c2)[C@@H]1C)C1CCOCC1` [Example 14, (4S,5R)-5-[3,5-Bis(trifluoromethyl)phenyl]-4-methyl-3-({[2-ethyl(tetrahydro-2H-pyran-4-yl)amino]-pyridin-3-yl}methyl)-oxazolidin-2-one], the IC50 worked out at 98 nM.

In the case of `CCN(c1ncc(-c2c(C)n[nH]c2C)cc1CN1C(=O)O[C@H](c2cc(C(F)(F)F)cc(C(F)(F)F)c2)[C@@H]1C)C1CCCCC1` [Example 65, (4S,5R)-5-[3,5-bis(trifluoromethyl)phenyl]-4-methyl-3-({[2-(ethyl)(cyclohexyl-4-yl)amino]-5-(3,5-dimethyl-1H-pyrazol-4-yl)pyridin-3-yl}methyl)-oxazolidin-2-one], the IC50 stood at 224 nM.

Consider `CCN(c1ncc(N2CCCCC2)cc1CN1C(=O)O[C@H](c2cc(C(F)(F)F)cc(C(F)(F)F)c2)[C@@H]1C)C1CCOCC1` [Example 44, (4S,5R)-5-[3,5-bis(trifluoromethyl)phenyl]-4-methyl-3-({[2-(ethyl)(tetrahydro-2H-pyran-4-yl)amino]-5-(piperidin-1-yl)pyridin-3-yl}methyl)-oxazolidin-2-one], for which the half-maximal inhibitory concentration (IC50) turned out to be 57 nM.

For `C[C@H]1[C@@H](c2cc(C(F)(F)F)cc(C(F)(F)F)c2)OC(=O)N1Cc1cc(C(F)(F)F)cnc1N(C1CCC1)C1CCOCC1` [Example 11, (4S,5R)-5-[3,5-bis(trifluoromethyl)phenyl]-4-methyl-3-({[2-(cyclobutyl)(tetrahydro-2H-pyran-4-yl)amino]-5-(trifluoro)methylpyridin-3-yl}methyl)-oxazolidin-2-one], the IC50 came out at 317 nM.

For “(4S,5R)-5-[3,5-bis(trifluoromethyl)phenyl]-3-({[2-(cyclopropyl)(cyclohexyl)amino]-5-(3,5-dimethyl-isoxazol-4-yl)pyrazin-3-yl}methyl)-4-methyloxazolidin-2-one [Example 97]”, the IC50 stood at 11.6 nM.

For the compound `CCOc1cccc(-c2cnc(N(CC)C3CCOCC3)c(CN3C(=O)O[C@H](c4cc(C(F)(F)F)cc(C(F)(F)F)c4)[C@@H]3C)c2)c1` [Example 48, (4S,5R)-5-[3,5-bis(trifluoromethyl)phenyl]-4-methyl-3-({[2-(ethyl)(tetrahydro-2H-pyran-4-yl)amino]-5-(3-ethoxyphenyl)pyridin-3-yl}methyl)-oxazolidin-2-one], the IC50 turned out to be 133 nM.

On to `CCN(C[C@H]1CC[C@H](CC(=O)O)CC1)c1ncc(-c2ccc(C#N)cc2)nc1CN1C(=O)OC(c2cc(C(F)(F)F)cc(C(F)(F)F)c2)[C@@H]1C` (some centres unmarked) [Example 117], for which the IC50 was determined as 11.7 nM.

Consider “(4S,5R)-5-[3,5-bis(trifluoromethyl)phenyl]-4-methyl-3-({[2-(ethyl)(cyclohexyl)amino]-5-(3-methoxy-thiophen-2-yl)pyridin-3-yl}methyl)-oxazolidin-2-one [Example 70]”, for which the concentration for half-maximal inhibition (IC50) was determined as 9.9 nM.

With `C[C@H]1[C@@H](c2cc(C(F)(F)F)cc(C(F)(F)F)c2)OC(=O)N1Cc1cc(C(F)(F)F)cnc1N(CC(=O)OC(C)(C)C)C1CCOCC1` [Example 17, t-butyl 2-([3-({(4S,5R)-5-[3,5-bis(trifluoromethyl)phenyl]-4-methyl-2-oxo-oxazolidin-3-yl}methyl)-5-(trifluoromethyl)pyridin-2-yl]-(tetrahydro-2H-pyran-4-yl)amino)-acetate], the IC50 came out at 379 nM.

On to `CCC(=O)N1CCC(N(CC)c2ncc(C(F)(F)F)cc2CN2C(=O)O[C@H](c3cc(C(F)(F)F)cc(C(F)(F)F)c3)[C@@H]2C)CC1` [Example 34, (4S,5R)-5-[3,5-bis(trifluoromethyl)phenyl]-4-methyl-3-({[2-(ethyl)(1-propionylpiperidin-4-yl)amino]-5-(trifluoromethyl)pyridin-3-yl}methyl)-oxazolidin-2-one], for which the IC50 worked out at 62 nM.

In the case of `CCN(c1ncc(-c2ccccc2)cc1CN1C(=O)O[C@H](c2cc(C(F)(F)F)cc(C(F)(F)F)c2)[C@@H]1C)C1CCOCC1` [Example 45, (4S,5R)-5-[3,5-bis(trifluoromethyl)phenyl]-4-methyl-3-({[2-(ethyl)(tetrahydro-2H-pyran-4-yl)amino]-5-phenylpyridin-3-yl}methyl)-oxazolidin-2-one], the IC50 was found to be 26.9 nM.

For `CCN(c1ncc(-c2c[nH]nc2C(F)(F)F)cc1CN1C(=O)O[C@H](c2cc(C(F)(F)F)cc(C(F)(F)F)c2)[C@@H]1C)C1CCCCC1` [Example 72, (4S,5R)-5-[3,5-bis(trifluoromethyl)phenyl]-4-methyl-3-({[2-(ethyl)(cyclohexyl)amino]-5-(3-(trifluoromethyl)-1H-pyrazol-4-yl)pyridin-3-yl}methyl)-oxazolidin-2-one], the IC50 was found to be 169 nM.

In the case of `CCN(c1ncc(-c2ccnn2C)cc1CN1C(=O)O[C@H](c2cc(C(F)(F)F)cc(C(F)(F)F)c2)[C@@H]1C)C1CCCCC1` [Example 59, (4S,5R)-5-[3,5-bis(trifluoromethyl)phenyl]-4-methyl-3-({[2-(ethyl)(cyclohexyl)amino]-5-(1-methyl-1H-pyrazol-5-yl)pyridin-3-yl}methyl)-oxazolidin-2-one], the IC50 is 5.7 nM.

On to `CCN(CC1CCC(CC(=O)O)CC1)c1ncc(-c2cc(C)nn2C)nc1CN1C(=O)OC(c2cc(C(F)(F)F)cc(C(F)(F)F)c2)C1C` [Example 107, trans-4-({[3-({(4S,5S)-5-[3,5-bis(trifluoromethyl)phenyl]-4-methyl-2-oxazolidin-3-yl}methyl)-5-(1,3-dimethyl-1H-pyrazol-5-yl)pyrazin-2-yl]{[N-(ethyl)aminomethyl]cyclohexyl)}acetic acid], for which the IC50 came out at 37 nM.

In the case of `CCN(c1ncc(C(F)(F)F)cc1CN1C(=O)O[C@H](c2cc(C(F)(F)F)cc(C(F)(F)F)c2)[C@@H]1C)C1CCOCC1` [Example 7, (4S,5R)-5-[3,5-bis(trifluoromethyl)phenyl]-4-methyl-3-({[2-(ethyl)(tetrahydro-2H-pyran-4-yl)amino]-5-(trifluoromethyl)pyridin-3-yl}methyl)-oxazolidin-2-one], the IC50 was 6.3 nM.

On to `CCN(c1ncc(F)cc1CN1C(=O)O[C@H](c2cc(C(F)(F)F)cc(C(F)(F)F)c2)[C@@H]1C)C1CCOCC1` [Example 16, (4S,5R)-5-[3,5-Bis(trifluoromethyl)phenyl]-4-methyl-3-({2-[ethyl(tetrahydro-2H-pyran-4-yl)amino]-5-fluoropyridin-3-yl}methyl)-oxazolidin-2-one], for which the concentration for half-maximal inhibition (IC50) was 75 nM.
